Drawing on publication PMC12121777 (PLOS One, 2025), this text covers MIC for 6 compounds.

In brackets after ≈: the same amount, converted by molar mass. Where two headings read alike, the source gives them in different places.

Holding throughout (experiment): microbe, parasite or virus in culture
Common to all, as to assay type: cell-based

One test concerns Mtb Praha 1. The settings on record: Mycobacterium tuberculosis, read-out: MIC Mtb Praha 1.
For a further test, the system named is Mtb Praha 4. The settings on record: Mycobacterium tuberculosis, read-out: MIC Mtb Praha 4.
For a further test, the system named is Mtb Praha 131. The settings on record: Mycobacterium tuberculosis, read-out: MIC Mtb Praha 131.
A further test concerns Mtb 234/2005. To be noted: Mycobacterium tuberculosis, read-out: MIC Mtb 234/2005.
For another test, the system named is Mtb 9449/2007. To be noted: Mycobacterium tuberculosis, read-out: MIC Mtb 9449/2007.
The subject of a further test is Mtb 7357/1998. To be noted: Mycobacterium tuberculosis, read-out: MIC Mtb 7357/1998.
Another test relates to Mtb 8666/2010. The settings on record: Mycobacterium tuberculosis, read-out: MIC Mtb 8666/2010.

Take `CCCCCCCNC(=O)NNC(=O)c1cc([N+](=O)[O-])cc([N+](=O)[O-])c1` [Compound 4g, 2-(3,5-Dinitrobenzoyl)-N-heptylhydrazine-1-carboxamide]: the MIC in the test on Mtb Praha 1 (PRAHA1, 336 h) is 1 µM (≈ 0.367 µg/mL); in the test with Mtb Praha 1 (PRAHA1, 504 h), 2 µM (≈ 0.735 µg/mL); with Mtb Praha 4 (PRAHA4, 336 h), 1 µM (≈ 0.367 µg/mL); with Mtb Praha 4 (PRAHA4, 504 h), 1 µM (≈ 0.367 µg/mL); in the test with Mtb Praha 131 (PRAHA131, 336 h) it was 1 µM (≈ 0.367 µg/mL); with Mtb Praha 131 (PRAHA131, 504 h), 2 µM (≈ 0.735 µg/mL). Besides, the MIC with Mtb 234/2005 (234/2005, 336 h) stood at 1 µM (≈ 0.367 µg/mL); with Mtb 234/2005 (234/2005, 504 h) it was 2 µM (≈ 0.735 µg/mL); in the test on Mtb 9449/2007 (9449/2007, 336 h) it was 1 µM (≈ 0.367 µg/mL); in the test on Mtb 9449/2007 (9449/2007, 504 h), 1 µM (≈ 0.367 µg/mL); in the test on Mtb 7357/1998 (7357/1998, 336 h) it was 1 µM (≈ 0.367 µg/mL); with Mtb 7357/1998 (7357/1998, 504 h), 1 µM (≈ 0.367 µg/mL). Also, the MIC in the test on Mtb 8666/2010 (8666/2010, 336 h) was determined as 1 µM (≈ 0.367 µg/mL); with Mtb 8666/2010 (8666/2010, 504 h) it was 1 µM (≈ 0.367 µg/mL).
On to `CCCCCCCCNC(=O)NNC(=O)c1cc([N+](=O)[O-])cc([N+](=O)[O-])c1` [Compound 4h, 2-(3,5-Dinitrobenzoyl)-N-octylhydrazine-1-carboxamide], for which the MIC in the test with Mtb Praha 1 (PRAHA1, 336 h) stood at 1 µM (≈ 0.381 µg/mL); in the test with Mtb Praha 1 (PRAHA1, 504 h), 1 µM (≈ 0.381 µg/mL); in the test with Mtb Praha 4 (PRAHA4, 336 h), 1 µM (≈ 0.381 µg/mL); in the test with Mtb Praha 4 (PRAHA4, 504 h) it was 1 µM (≈ 0.381 µg/mL); in the test with Mtb Praha 131 (PRAHA131, 336 h) it was 1 µM (≈ 0.381 µg/mL); with Mtb Praha 131 (PRAHA131, 504 h), 1 µM (≈ 0.381 µg/mL). Moreover, the MIC was 1 µM (≈ 0.381 µg/mL) in the test on Mtb 234/2005 (234/2005, 336 h); 1 µM (≈ 0.381 µg/mL) in the test on Mtb 234/2005 (234/2005, 504 h); 1 µM (≈ 0.381 µg/mL) with Mtb 9449/2007 (9449/2007, 336 h); 1 µM (≈ 0.381 µg/mL) in the test with Mtb 9449/2007 (9449/2007, 504 h); 1 µM (≈ 0.381 µg/mL) with Mtb 7357/1998 (7357/1998, 336 h); 1 µM (≈ 0.381 µg/mL) in the test with Mtb 7357/1998 (7357/1998, 504 h). For the same compound, the MIC was found to be 1 µM (≈ 0.381 µg/mL) with Mtb 8666/2010 (8666/2010, 336 h) and 1 µM (≈ 0.381 µg/mL) in the test on Mtb 8666/2010 (8666/2010, 504 h).
As for `CCCCCCCCCNC(=O)NNC(=O)c1cc([N+](=O)[O-])cc([N+](=O)[O-])c1` [Compound 4i, 2-(3,5-Dinitrobenzoyl)-N-nonylhydrazine-1-carboxamide], the MIC in the test with Mtb Praha 1 (PRAHA1, 336 h) came to 1 µM (≈ 0.395 µg/mL); in the test with Mtb Praha 1 (PRAHA1, 504 h) it was 2 µM (≈ 0.791 µg/mL); in the test with Mtb Praha 4 (PRAHA4, 336 h), 1 µM (≈ 0.395 µg/mL); with Mtb Praha 4 (PRAHA4, 504 h) it was 1 µM (≈ 0.395 µg/mL); in the test with Mtb Praha 131 (PRAHA131, 336 h), 1 µM (≈ 0.395 µg/mL); in the test with Mtb Praha 131 (PRAHA131, 504 h) it was 2 µM (≈ 0.791 µg/mL). Further, the MIC in the test on Mtb 234/2005 (234/2005, 336 h) was 1 µM (≈ 0.395 µg/mL); in the test on Mtb 234/2005 (234/2005, 504 h), 2 µM (≈ 0.791 µg/mL); in the test on Mtb 9449/2007 (9449/2007, 336 h) it was 1 µM (≈ 0.395 µg/mL); in the test on Mtb 9449/2007 (9449/2007, 504 h) it was 1 µM (≈ 0.395 µg/mL); with Mtb 7357/1998 (7357/1998, 336 h), 1 µM (≈ 0.395 µg/mL); in the test with Mtb 7357/1998 (7357/1998, 504 h), 1 µM (≈ 0.395 µg/mL). The MIC in the test with Mtb 8666/2010 (8666/2010, 336 h) turned out to be 1 µM (≈ 0.395 µg/mL); in the test with Mtb 8666/2010 (8666/2010, 504 h), 1 µM (≈ 0.395 µg/mL).
`CCCCCCCCCCCCNC(=S)NNC(=O)c1cc([N+](=O)[O-])cc([N+](=O)[O-])c1` [Compound 4s, 2-(3,5-Dinitrobenzoyl)-N-dodecylhydrazine-1-carbothioamide]: the MIC with Mtb Praha 1 (PRAHA1, 336 h) came out at 2 µM (≈ 0.907 µg/mL); in the test with Mtb Praha 1 (PRAHA1, 504 h), 2 µM (≈ 0.907 µg/mL); in the test with Mtb Praha 4 (PRAHA4, 336 h), 2 µM (≈ 0.907 µg/mL); with Mtb Praha 4 (PRAHA4, 504 h), 2 µM (≈ 0.907 µg/mL); in the test with Mtb Praha 131 (PRAHA131, 336 h) it was 2 µM (≈ 0.907 µg/mL); in the test with Mtb Praha 131 (PRAHA131, 504 h), 4 µM (≈ 1.81 µg/mL). Also, the MIC in the test with Mtb 234/2005 (234/2005, 336 h) amounted to 2 µM (≈ 0.907 µg/mL); in the test with Mtb 234/2005 (234/2005, 504 h) it was 4 µM (≈ 1.81 µg/mL); in the test with Mtb 9449/2007 (9449/2007, 336 h) it was 2 µM (≈ 0.907 µg/mL); in the test on Mtb 9449/2007 (9449/2007, 504 h) it was 2 µM (≈ 0.907 µg/mL); in the test with Mtb 7357/1998 (7357/1998, 336 h), 1 µM (≈ 0.454 µg/mL); in the test with Mtb 7357/1998 (7357/1998, 504 h), 2 µM (≈ 0.907 µg/mL). Moreover, the MIC in the test with Mtb 8666/2010 (8666/2010, 336 h) amounted to 1 µM (≈ 0.454 µg/mL); in the test on Mtb 8666/2010 (8666/2010, 504 h), 2 µM (≈ 0.907 µg/mL).
On to `CCCCNc1nnc(-c2cc([N+](=O)[O-])cc([N+](=O)[O-])c2)o1` [Compound 5d, N-Butyl-5-(3,5-dinitrophenyl)-1,3,4-oxadiazol-2-amine], for which the MIC in the test on Mtb Praha 1 (PRAHA1, 336 h) is 1 µM (≈ 0.307 µg/mL); with Mtb Praha 1 (PRAHA1, 504 h), 1 µM (≈ 0.307 µg/mL); in the test with Mtb Praha 4 (PRAHA4, 336 h), 0.5 µM (≈ 0.154 µg/mL); in the test with Mtb Praha 4 (PRAHA4, 504 h) it was 1 µM (≈ 0.307 µg/mL); in the test with Mtb Praha 131 (PRAHA131, 336 h), 0.5 µM (≈ 0.154 µg/mL); in the test with Mtb Praha 131 (PRAHA131, 504 h), 1 µM (≈ 0.307 µg/mL). Besides, the MIC worked out at 0.5 µM (≈ 0.154 µg/mL) in the test with Mtb 234/2005 (234/2005, 336 h); 1 µM (≈ 0.307 µg/mL) in the test with Mtb 234/2005 (234/2005, 504 h); 0.5 µM (≈ 0.154 µg/mL) with Mtb 9449/2007 (9449/2007, 336 h); 0.5 µM (≈ 0.154 µg/mL) with Mtb 9449/2007 (9449/2007, 504 h); 0.5 µM (≈ 0.154 µg/mL) in the test on Mtb 7357/1998 (7357/1998, 336 h); 1 µM (≈ 0.307 µg/mL) with Mtb 7357/1998 (7357/1998, 504 h). In addition, the MIC in the test with Mtb 8666/2010 (8666/2010, 336 h) came to 0.5 µM (≈ 0.154 µg/mL); in the test with Mtb 8666/2010 (8666/2010, 504 h), 0.5 µM (≈ 0.154 µg/mL).
Turning to `CCCCCNc1nnc(-c2cc([N+](=O)[O-])cc([N+](=O)[O-])c2)o1` [Compound 5e, 5-(3,5-Dinitrophenyl)-N-pentyl-1,3,4-oxadiazol-2-amine], the MIC with Mtb Praha 1 (PRAHA1, 336 h) was determined as 0.125 µM (≈ 0.0402 µg/mL); in the test on Mtb Praha 1 (PRAHA1, 504 h), 0.25 µM (≈ 0.0803 µg/mL); with Mtb Praha 4 (PRAHA4, 336 h) it was 0.125 µM (≈ 0.0402 µg/mL); with Mtb Praha 4 (PRAHA4, 504 h), 0.5 µM (≈ 0.161 µg/mL); in the test on Mtb Praha 131 (PRAHA131, 336 h) it was 0.125 µM (≈ 0.0402 µg/mL); in the test on Mtb Praha 131 (PRAHA131, 504 h) it was 0.125 µM (≈ 0.0402 µg/mL). The MIC came to 0.125 µM (≈ 0.0402 µg/mL) in the test on Mtb 234/2005 (234/2005, 336 h); 0.125 µM (≈ 0.0402 µg/mL) in the test on Mtb 234/2005 (234/2005, 504 h); 0.125 µM (≈ 0.0402 µg/mL) with Mtb 9449/2007 (9449/2007, 336 h); 0.125 µM (≈ 0.0402 µg/mL) in the test on Mtb 9449/2007 (9449/2007, 504 h); 0.125 µM (≈ 0.0402 µg/mL) with Mtb 7357/1998 (7357/1998, 336 h); 0.125 µM (≈ 0.0402 µg/mL) with Mtb 7357/1998 (7357/1998, 504 h). Also, the MIC was determined as 0.125 µM (≈ 0.0402 µg/mL) in the test on Mtb 8666/2010 (8666/2010, 336 h) and 0.125 µM (≈ 0.0402 µg/mL) in the test with Mtb 8666/2010 (8666/2010, 504 h).
